How the values were obtained:
[1] = biological target: T1, GST-Flk1 (Mus musculus, UniProt P35918); assay: GST-FLK-1 bioassay (bio flkGST); assay type: biochemical
T1 construct: GST-Flk1cd purified from sf9 recombinant baculovirus transformation; host or cells: Sf9 (baculovirus)
Procedure: This assay analyzes the tyrosine kinase activity of GST-Flk1 on poly(glu,tyr) peptides.
Preparation of poly(glu,tyr)(pEY) coated assay plates: Coat 2 ug/well of poly(glu,tyr)(pEY) in 100 ul PBS, hold at room temperature for 2 hours or at 4° C. overnight. Cover plates well to prevent evaporation.
When all reagents have dissolved, adjust the pH to 7.2 with HCl. Bring total volume to 1 L with dH2O.
PBST Buffer: to 1 L of PBS Buffer, add 1.0 ml Tween-20.
Adjust pH to 7.2 with HCl. Add 10 g BSA, stir to dissolve. Bring total volume to 1 L with dH2O. Filter to remove particulate matter.
Adjust total volume to 1 L with PBS buffer, filter to remove particulate matter.
GST-Flk1cd purified from sf9 recombinant baculovirus transformation (SUGEN, Inc.).
Add 10 N NaOH until EDTA dissolves. Adjust pH to 8.0. Adjust total volume to 100 ml with dH2O.
Anti-phosphotyrosine monoclonal antibody conjugated to horseradish peroxidase (PY99 HRP, Santa Cruz Biotech).
2,2′-Azinobis(3-ethylbenzthiazoline-6-sulfonic acid (ABTS, Moss, Cat. No. ABST).
Coat Corning 96-well ELISA plates with 2 μg of polyEY peptide in sterile PBS as described in step 3 of Materials and Reagents.
Remove unbound liquid from wells by inverting plate. Wash once with TBST. Pat the plate on a paper towel to remove excess liquid.
Add 100 μl of 1% BSA in PBS to each well. Incubate, with shaking, for 1 hr. at room temperature.
Soak wells with 50 mM HEPES (pH7.5) (150 μl/well).
Dilute test compound with dH2O/4% DMSO to 4 times the desired final assay concentration in 96-well polypropylene plates.
Add 25 μl diluted test compound to ELISA plate. In control wells, place 25 μl of dH2O/4% DMSO.
Add 25 μl 0.5M EDTA to negative control wells.
Dilute GST-Flk1 to 0.005 μg (5 ng)/well with KDB.
Add 50 μl of diluted enzyme to each well.
Incubate, with shaking, for 15 minutes at room temperature.
Wash 3×with TBST and pat plate on paper towel to remove excess liquid.
Incubate, with shaking, for 90 min. at room temperature.
Add 100 μl of room temperature ABTS solution to each well.
Stop reaction by adding 20 μl of 10% SDS to each well.

[2] = biological target: T2, PDGFR-β (Homo sapiens, UniProt P09619); assay: PDGFR bioassay (bio PDGF); assay type: biochemical
T2 construct: host or cells: NIH 3T3
Procedure: Corning 96-well Elisa plates
28D4C10 monoclonal anti-PDGFR antibody (SUGEN, Inc.).
Blocking Buffer (same as for EGFR bioassay).
PDGFR-β expressing NIH 3T3 cell lysate (SUGEN, Inc.).
Kinase buffer phosphorylation mix: for 10 ml, mix 250 μl 1M TRIS, 200 μl 5M NaCl, 100 μl 1M MnCl2 and 50 μl 100 mM Triton X-100 in enough dH2O to make 10 ml.
(§1) NUNC 96-well V bottom polypropylene plates.
Rabbit polyclonal anti-phosphotyrosine serum (SUGEN, Inc.).
Goat anti-rabbit IgG peroxidase conjugate (Biosource Cat. No. ALI0404).
Hydrogen peroxide, 30% solution.
Coat Corning 96 well ELISA plates with 0.5 μg 28D4C10 in 100 μl PBS per well, store overnight at 4° C.
Remove unbound 28D4C10 from wells by inverting plate to remove liquid. Wash 1×with dH2O. Pat the plate on a paper towel to remove excess liquid.
Add 150 μl of Blocking Buffer to each well. Incubate for 30 min. at room temperature with shaking.
Wash plate 3×with deionized water, then once with TBST. Pat plate on a paper towel to remove excess liquid and bubbles.
Dilute lysate in HNTG (10 μg lysate/100 μl HNTG).
Add 100 μl of diluted lysate to each well. Shake at room temperature for 60 min.
Wash plates as described in Step 4.
Add 80 μl working kinase buffer mix to ELISA plate containing captured PDGFR.
Add 10 μl diluted test compound to ELISA plate. To control wells, add 10 μl TBS+10% DMSO. Incubate with shaking for 30 minutes at room temperature.
Add 10 μl ATP directly to all wells except negative control well (final well volume should be approximately 100 μl with 20 μM ATP in each well.) Incubate 30 minutes with shaking.
Stop reaction by adding 10 μl of EDTA solution to each well.
Wash 4×with deionized water, twice with TBST.
Add 100 μl anti-phosphotyrosine (1:3000 dilution in TBST) per well. Incubate with shaking for 30-45 min. at room temperature.
Incubate with shaking for 30 min. at room temperature.
Add 100 μl of ABTS/H2O2 solution to each well.
Incubate 10 to 30 minutes with shaking. Remove any bubbles.
If necessary stop reaction with the addition of 100 μl 0.2 M HCl per well.

[3] = biological target: T3, EGFR (Homo sapiens, UniProt P00533); assay: EGFR bioassay (bio EGF); assay type: biochemical
T3 construct: A431 cell lysate (SUGEN, Inc.); host or cells: A431
Procedure: This assay is used to the in vitro kinase activity of FGF1-R in an ELISA assay.
1. Corning 96-well Elisa plates.
2. SUMO1 monoclonal anti-EGFR antibody (SUGEN, Inc.).
5. Blocking Buffer: for 100 ml, mix 5.0 g Carnation Instant Non-fat Milk® with 100 ml of PBS.
6. A431 cell lysate (SUGEN, Inc.).
9. […] This reagent should be made up immediately prior to use and kept on ice.
11. […] Prepare just prior to use, keep on ice.
12. NUNC 96-well V bottom polypropylene plates.
14. Rabbit polyclonal anti-phosphotyrosine serum (SUGEN, Inc.).
15. Goat anti-rabbit IgG peroxidase conjugate (Biosource Cat. No. ALI0404).
17. 30% Hydrogen peroxide.
1. Coat Corning 96 well ELISA plates with 0.5 μg SUMO1 in 100 μl PBS per well, store overnight at 4° C.
2. Remove unbound SUMO1 from wells by inverting plate to remove liquid. Wash 1×with dH2O. Pat the plate on a paper towel to remove excess liquid.
3. Add 150 μl of Blocking Buffer to each well. Incubate, with shaking, for 30 min. at room temperature.
4. Wash plate 3×with deionized water, then once with TBST. Pat plate on a paper towel to remove excess liquid and bubbles.
5. Dilute lysate in PBS (7 μg lysate/100 μl PBS).
6. Add 100 μl of diluted lysate to each well. Shake at room temperature for 1 hr.
7. Wash plates as in 4, above.
8. Add 120 μl TBS to ELISA plate containing captured EGFR.
10. Add 13.5 μl diluted test compound to ELISA plate. To control wells, add 13.5 μl TBS in 10% DMSO.
11. Incubate, with shaking, for 30 minutes at room temperature.
12. Add 15 μl phosphorylation mix to all wells except negative control well. Final well volume should be approximately 150 μl with 3 μM ATP/5 mM MnCl2 final concentration in each well. Incubate with shaking for 5 minutes.
13. Stop reaction by adding 16.5 μl of EDTA solution while shaking. Shake for additional 1 min.
14. Wash 4×with deionized water, 2×with TBST.
15. Add 100 μl anti-phosphotyrosine (1:3000 dilution in TBST) per well. Incubate, with shaking, for 30-45 min. at room temperature.
17. […] Incubate with shaking for 30 min. at room temperature.
19. Add 100 μl of ABTS/H2O2 solution to each well.
20. Incubate 5 to 10 minutes with shaking. Remove any bubbles.
21. If necessary, stop reaction by adding 100 μl 0.2 M HCl per well.

[4] = biological target: T4, HER-2 kinase (Homo sapiens, UniProt P04626); assay: Cellular HER-2 kinase assay; assay type: cell-based; details: read-out: Her2 Kinase IC50
T4 construct: Use EGFr/HER-2 chimera/3T3-C7 cell line for this assay; It is expressed in mouse NIH 3T3 clone C7 cells; P00533 (Epidermal growth factor receptor)
T4 sequence (P04626 720-987 limits assumed): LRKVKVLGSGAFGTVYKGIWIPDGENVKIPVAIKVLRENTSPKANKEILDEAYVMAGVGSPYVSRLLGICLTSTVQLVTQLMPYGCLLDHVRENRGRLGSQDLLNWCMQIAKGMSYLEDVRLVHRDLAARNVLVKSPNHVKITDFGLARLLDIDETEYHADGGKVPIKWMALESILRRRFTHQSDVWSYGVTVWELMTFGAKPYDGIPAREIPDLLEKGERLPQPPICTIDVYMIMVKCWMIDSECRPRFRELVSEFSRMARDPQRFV
Procedure: Cellular HER-2 Kinase Assay
This assay is used to measure HER-2 kinase activity in whole cells in an ELISA format.
Fetal Bovine Serum (FBS, GIBCO Catalog #16000-044), heat inactivated in a water bath for 30 min. at 56° C.
Corning 96-well ELISA Plates.
as §1
SUMO 1: monoclonal anti-EGFR antibody (SUGEN, Inc.).
Blocking Buffer: 5% Carnation Instant Milk® in PBS.
Suspend powder in 100 uL of 10 mM HCl. Add 100 uL 10 mM NaOH. Add 800 uL PBS and transfer to an Eppendorf tube, store at −20° C. until ready to use.
Na3VO4. […] Adjust pH to 10. Boil in microwave for one minute (solution becomes clear). Cool to room temperature. Adjust pH to 10. Repeat heating/cooling cycle until pH remains at 10.
Rabbit polyclonal antiserum specific for phosphotyrosine (anti-Ptyr antibody, SUGEN, Inc.).
Affinity purified antiserum, goat anti-rabbit IgG antibody, peroxidase conjugate (Biosource Cat #ALI0404).
30% Hydrogen peroxide solution.
Coat Corning 96 well ELISA plates with SUMO1 at 1.0 ug per well in PBS, 100 ul final volume/well. Store overnight at 4° C.
On day of use, remove coating buffer and wash plate 3 times with dH2O and once with TBST buffer. All washes in this assay should be done in this manner, unless otherwise specified.
Add 100 ul of Blocking Buffer to each well. Incubate plate, with shaking, for 30 min. at room temperature. Just prior to use, wash plate.
Use EGFr/HER-2 chimera/3T3-C7 cell line for this assay.
Choose dishes having 80-90% confluence. Collect cells by trypsinization and centrifuge at 1000 rpm at room temperature for 5 min.
Resuspend cells in starve medium and count with trypan blue. Viability above 90% is required. Seed cells in starve medium at a density of 2,500 cells per well, 90 ul per well, in a 96 well microtiter plate. Incubate seeded cells overnight at 37° under 5% CO2.
Start the assay two days after seeding.
Test compounds are dissolved in 4% DMSO. Samples are then further diluted directly on plates with starve-DMEM. Typically, this dilution will be 1:10 or greater.
Incubate under 5% CO2 at 37° C. for 2 hours.
Prepare fresh HNTG* sufficient for 100 ul per well; place on ice.
After 2 hour incubation with test compound, add prepared EGF ligand to cells, 50 ul per well, for a final concentration of 50 nM. Positive control wells receive the same amount of EGF. […] Incubate at 37° C. for 10 min.
Remove test compound, EGF, and DMEM. Wash cells once with PBS.
Transfer HNTG* to cells, 100 ul per well. Place on ice for 5 minutes. Meanwhile, remove blocking buffer from ELISA plate and wash.
Scrape cells from plate with a micropipettor and homogenize cell material by repeatedly aspirating and dispensing the HNTG* lysis buffer. Transfer lysate to a coated, blocked, washed ELISA plate. Or, use a Costar transfer cartridge to transfer lysate to the plate.
Incubate, with shaking, at room temperature for 1 hr.
Remove lysate, wash. Transfer freshly diluted anti-Ptyr antibody (1:3000 in TBST) to ELISA plate, 100 ul per well.
Incubate, with shaking, at room temperature, for 30 min.
Remove anti-Ptyr antibody, wash. Transfer freshly diluted BIOSOURCE antibody to ELISA plate (1:8000 in TBST, 100 ul per well).
Incubate, with shaking, at room temperature for 30 min.
Remove BIOSOURCE antibody, wash. Transfer freshly prepared ABTS/H2O2 solution to ELISA plate, 100 ul per well.
Stop reaction with the addition of 100 ul of 0.2M HCl per well.

T3 sequence (P00533 25-1210): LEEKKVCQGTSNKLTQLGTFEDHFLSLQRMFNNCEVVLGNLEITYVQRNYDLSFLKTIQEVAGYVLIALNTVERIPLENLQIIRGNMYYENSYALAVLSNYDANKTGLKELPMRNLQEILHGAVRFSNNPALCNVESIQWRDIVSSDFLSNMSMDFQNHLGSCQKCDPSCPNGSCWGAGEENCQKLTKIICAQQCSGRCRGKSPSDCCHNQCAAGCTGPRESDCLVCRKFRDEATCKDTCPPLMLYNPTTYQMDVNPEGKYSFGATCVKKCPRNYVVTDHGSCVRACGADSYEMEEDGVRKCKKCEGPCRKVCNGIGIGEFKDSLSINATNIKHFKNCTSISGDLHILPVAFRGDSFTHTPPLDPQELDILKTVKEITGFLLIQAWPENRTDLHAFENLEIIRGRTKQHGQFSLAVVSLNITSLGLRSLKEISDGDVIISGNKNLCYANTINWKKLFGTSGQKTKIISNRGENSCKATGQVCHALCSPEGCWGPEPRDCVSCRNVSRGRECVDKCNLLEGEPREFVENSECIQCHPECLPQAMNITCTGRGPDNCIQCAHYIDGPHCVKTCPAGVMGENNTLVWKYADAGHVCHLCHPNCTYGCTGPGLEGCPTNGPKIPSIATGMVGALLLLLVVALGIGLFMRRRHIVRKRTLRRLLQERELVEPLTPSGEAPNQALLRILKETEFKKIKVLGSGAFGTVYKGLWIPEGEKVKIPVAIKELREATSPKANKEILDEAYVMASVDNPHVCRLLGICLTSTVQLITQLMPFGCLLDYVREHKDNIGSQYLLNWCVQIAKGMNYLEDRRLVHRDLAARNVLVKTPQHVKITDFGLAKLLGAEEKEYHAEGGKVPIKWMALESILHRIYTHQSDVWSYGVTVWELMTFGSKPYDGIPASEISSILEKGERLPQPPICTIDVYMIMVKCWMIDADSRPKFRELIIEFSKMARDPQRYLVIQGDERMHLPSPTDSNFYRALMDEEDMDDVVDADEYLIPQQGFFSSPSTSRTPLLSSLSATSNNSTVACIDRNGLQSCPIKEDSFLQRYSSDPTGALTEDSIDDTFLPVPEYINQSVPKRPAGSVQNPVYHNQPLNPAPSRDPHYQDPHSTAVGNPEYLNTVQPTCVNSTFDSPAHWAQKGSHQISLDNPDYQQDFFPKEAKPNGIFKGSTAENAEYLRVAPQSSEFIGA
T2 sequence (P09619 33-1106): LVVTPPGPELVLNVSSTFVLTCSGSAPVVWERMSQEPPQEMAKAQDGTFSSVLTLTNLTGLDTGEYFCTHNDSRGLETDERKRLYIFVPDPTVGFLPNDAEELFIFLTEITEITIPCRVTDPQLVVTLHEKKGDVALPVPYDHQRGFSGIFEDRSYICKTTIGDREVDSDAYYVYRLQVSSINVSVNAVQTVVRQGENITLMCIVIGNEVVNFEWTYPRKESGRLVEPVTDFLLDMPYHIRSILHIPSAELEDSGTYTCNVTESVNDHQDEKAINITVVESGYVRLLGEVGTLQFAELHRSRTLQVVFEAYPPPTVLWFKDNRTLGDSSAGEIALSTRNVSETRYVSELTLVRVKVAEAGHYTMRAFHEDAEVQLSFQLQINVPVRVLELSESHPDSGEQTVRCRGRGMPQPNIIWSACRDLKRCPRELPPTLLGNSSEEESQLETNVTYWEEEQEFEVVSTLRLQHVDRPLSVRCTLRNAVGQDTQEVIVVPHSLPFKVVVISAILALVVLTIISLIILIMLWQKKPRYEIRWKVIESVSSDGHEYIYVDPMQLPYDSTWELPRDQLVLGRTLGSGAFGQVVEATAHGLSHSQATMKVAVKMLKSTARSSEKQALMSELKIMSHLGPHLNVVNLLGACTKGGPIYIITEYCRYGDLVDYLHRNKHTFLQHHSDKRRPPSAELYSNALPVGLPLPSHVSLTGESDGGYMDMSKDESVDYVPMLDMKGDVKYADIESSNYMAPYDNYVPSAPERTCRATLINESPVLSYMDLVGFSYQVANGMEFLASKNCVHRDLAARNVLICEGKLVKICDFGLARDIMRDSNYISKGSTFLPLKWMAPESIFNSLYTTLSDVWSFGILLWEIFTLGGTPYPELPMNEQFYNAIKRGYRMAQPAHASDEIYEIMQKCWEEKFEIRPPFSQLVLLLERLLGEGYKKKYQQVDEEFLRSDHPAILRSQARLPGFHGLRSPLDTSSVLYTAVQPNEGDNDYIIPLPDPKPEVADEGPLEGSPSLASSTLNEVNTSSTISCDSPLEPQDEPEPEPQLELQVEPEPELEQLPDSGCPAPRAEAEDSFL
T1 sequence (P35918 784-1345 limits assumed): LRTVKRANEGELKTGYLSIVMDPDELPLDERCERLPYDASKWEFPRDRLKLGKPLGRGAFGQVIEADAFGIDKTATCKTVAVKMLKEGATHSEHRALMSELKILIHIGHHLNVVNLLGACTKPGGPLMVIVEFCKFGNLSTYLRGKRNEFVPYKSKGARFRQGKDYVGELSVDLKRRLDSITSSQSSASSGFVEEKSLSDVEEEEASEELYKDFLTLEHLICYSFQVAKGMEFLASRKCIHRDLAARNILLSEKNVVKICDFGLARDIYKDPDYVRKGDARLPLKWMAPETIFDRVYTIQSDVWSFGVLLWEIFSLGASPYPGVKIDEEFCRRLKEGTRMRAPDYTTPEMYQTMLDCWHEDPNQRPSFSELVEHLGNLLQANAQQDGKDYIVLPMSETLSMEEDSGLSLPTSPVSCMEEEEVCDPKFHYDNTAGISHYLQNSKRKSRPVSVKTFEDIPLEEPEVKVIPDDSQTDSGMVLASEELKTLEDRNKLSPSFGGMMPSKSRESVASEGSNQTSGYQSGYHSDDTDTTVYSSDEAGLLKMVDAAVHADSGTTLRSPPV

SMILES | IC50 [1] [µM] | IC50 [2] [µM] | IC50 [3] [µM] | IC50 [4] [µM]
CCN(CC)CCCNC(=O)c1[nH]c(/C=C2\C(=O)Nc3ccc(Br)cc32)c(C(C)=O)c1C [Example 29, 4-Acetyl-5-(5-bromo-2-oxo-1,2-dihydroindol-3-ylidenemethyl)-3-methyl-1H-pyrrole-2-carboxylic acid (3-diethylaminopropyl)amide] | 10.1 | > 100 | 26.7 | 3.98
Cc1c(C(=O)NCCCN2CCCC2)[nH]c(/C=C2\C(=O)Nc3ccccc32)c1C(=O)c1ccccc1 [Example 23, 4-Benzoyl-3-methyl-5-(2-oxo-1,2-dihydroindol-3-ylidenemethyl)-1H-pyrrole-2-carboxylic acid (3-pyrrolidin-1-ylpropyl)amide] | > 20 | > 100 | 36.6 | 4.05
CC(=O)c1c(/C=C2\C(=O)Nc3ccc(Br)cc32)[nH]c(C(=O)NCCc2ccc(O)cc2)c1C [Example 36, 4-Acetyl-5-(5-bromo-2-oxo-1,2-dihydroindol-3-ylidenemethyl)-3-methyl-1H-pyrrole-2-carboxylic acid [2-(4-hydroxy-phenyl)-ethyl]amide] | > 20 | > 100 | > 100 | > 100
COc1ccc(-c2ccc3c(c2)NC(=O)/C3=C\c2[nH]c(C)c(C(=O)NCCN3CCCC3)c2C)c(OC)c1 [Example 78, 5-[6-(2,4-Dimethoxy-phenyl)-2-oxo-1,2-dihydroindol-3-ylidenemethyl]-2,4-dimethyl-1H-pyrrole-3-carboxylic acid (2-pyrrolidin-1-yl-ethyl)amide] | 1.94 | 70.6 | 9.33 | 4.25
CC(=O)c1c(/C=C2\C(=O)Nc3ccc(Br)cc32)[nH]c(C(=O)NCCCN2CCCC2)c1C [Example 30, 4-Acetyl-5-(5-bromo-2-oxo-1,2-dihydroindol-3-ylidenemethyl)-3-methyl-1H-pyrrole-2-carboxylic acid (3-pyrrolidin-1-ylpropyl)amide] | 9.4 | > 100 | 18.7 | 4.1
CC(=O)c1c(/C=C2\C(=O)Nc3ccc(Br)cc32)[nH]c(C(=O)NCCN2CCOCC2)c1C [Example 34, 4-Acetyl-5-(5-bromo-2-oxo-1,2-dihydroindol-3-ylidenemethyl)-3-methyl-1H-pyrrole-2-carboxylic acid (2-morpholin-4-yl-ethyl)amide] | > 50 | > 100 | > 100 | > 100
CC(C)c1[nH]c(/C=C2\C(=O)Nc3ccc(Br)cc32)c(-c2ccccc2)c1C(=O)NCCCN1CCN(C)CC1 [Example 40, 5-(5-Bromo-2-oxo-1,2-dihydroindol-3-ylidenemethyl)-2-isopropyl-4-phenyl-1H-pyrrole-3-carboxylic acid [3-(4-methyl-piperazin-1-yl)-propyl]amide] | 4.5 | 7.9 | 6.52 | 6.27
CCN(CC)CCNC(=O)c1c(C)[nH]c(/C=C2\C(=O)Nc3cc(C(=O)O)ccc32)c1C [Example 81, 3-[4-(2-diethylaminoethylcarbamoyl)-3,5-dimethyl-1H-pyrrol-2-ylmethylene]-2-oxo-2,3-dihydro-1H-indole-6-carboxylic acid] | 0.21 | 0.18 | > 100 | > 100
COc1ccc2c(c1)/C(=C/c1[nH]c(C(=O)NCCCN3CCCC3)c(C)c1C(=O)c1ccccc1)C(=O)N2 [Example 27, 4-Benzoyl-5-(5-methoxy-2-oxo-1,2-dihydroindol-3-ylidenemethyl)-3-methyl-1H-pyrrole-2-carboxylic acid (3-pyrrolidin-1-ylpropyl)amide] |  | > 100 | 26.5 | 3.91
CCCCc1ccc(-c2ccc3c(c2)NC(=O)/C3=C\c2[nH]c(C)c(C(=O)NCCN3CCCC3)c2C)cc1 [Example 75, 5-[6-(4-Butyl-phenyl)-2-oxo-1,2-dihydroindol-3-ylidenemethyl]-2,4-dimethyl-1H-pyrrole-3-carboxylic acid (2-pyrrolidin-1-yl-ethyl)amide] | 2.7 | 61.6 | > 100 | > 100
Cc1[nH]c(/C=C2\C(=O)Nc3ccc(Br)cc32)c(C)c1C(=O)NCc1ccncc1 [Example 74, 5-(5-Bromo-2-oxo-1,2-dihydroindol-3-ylidenemethyl)-2,4-dimethyl-1H-pyrrole-3-carboxylic acid (pyridin-4-ylmethyl)amide] | 1.2 | 0.09 | 46.8 | > 100
CCN(CC)CCNC(=O)c1c(C)[nH]c(/C=C2\C(=O)Nc3cc(-c4cc(Cl)cc(Cl)c4)ccc32)c1C [Example 62, 5-[6-(3,5-Dichloro-phenyl)-2-oxo-1,2-dihydroindol-3-ylidenemethyl]-2,4-dimethyl-1H-pyrrole-3-carboxylic acid (2-diethylaminoethyl)amide] | 8 | 8.32 |  | 
Cc1c(C(=O)NCCCN2CCCC2)[nH]c(/C=C2\C(=O)Nc3ccc(F)cc32)c1C(=O)c1ccccc1 [Example 28, 4-Benzoyl-5-(5-fluoro-2-oxo-1,2-dihydroindol-3-ylidenemethyl)-3-methyl-1H-pyrrole-2-carboxylic acid (3-pyrrolidin-1-ylpropyl)amide] | 4.5 | 71.3 | 53.7 | 2.67
CCN(CC)CCCNC(=O)c1[nH]c(/C=C2\C(=O)Nc3ccccc32)cc1C [Example 12, 3-Methyl-5-(2-oxo-1,2-dihydroindol-3-ylidenemethyl)-1H-pyrrole-2-carboxylic acid (3-diethylaminopropyl)amide] | > 20 | 21.5 | > 100 | 27.7
COc1ccc2c(c1)NC(=O)/C2=C\c1[nH]c(C(=O)NCCCN2CCCC2)c(C)c1C(=O)c1ccccc1 [Example 26, 4-Benzoyl-5-(6-methoxy-2-oxo-1,2-dihydroindol-3-ylidenemethyl)-3-methyl-1H-pyrrole-2-carboxylic acid (3-pyrrolidin-1-ylpropyl)amide] | 16 | 66.9 | 34.7 | 10
CC(=O)c1c(/C=C2\C(=O)Nc3ccc(Br)cc32)[nH]c(C(=O)NCCN2CCCC2)c1C [Example 35, 4-Acetyl-5-(5-bromo-2-oxo-1,2-dihydroindol-3-ylidenemethyl)-3-methyl-1H-pyrrole-2-carboxylic acid (2-pyrrolidin-1-yl-ethyl)amide] | > 20 | > 100 | 80.4 | 54.1
CCN(CC)CCCNC(=O)c1[nH]c(/C=C2\C(=O)Nc3cc(OC)ccc32)cc1C [Example 16, 5-(6-Methoxy-2-oxo-1,2-dihydroindol-3-ylidenemethyl)-3-methyl-1H-pyrrole-2-carboxylic acid (3-diethylaminopropyl)amide] |  | 98.1 |  | 23.3
Cc1c(C(=O)NCCCN2CCOCC2)[nH]c(/C=C2\C(=O)Nc3ccc(Br)cc32)c1C(=O)c1ccccc1 [Example 22, 4-Benzoyl-5-(5-bromo-2-oxo-1,2-dihydroindol-3-ylidenemethyl)-3-methyl-1H-pyrrole-2-carboxylic acid (3-morpholin-4-ylpropyl)amide] |  |  |  | 87.7
Cc1c(C(=O)NCCCN2CCCC2)[nH]c(/C=C2\C(=O)Nc3cc(-c4ccccc4)ccc32)c1C(=O)c1ccccc1 [Example 25, 4-Benzoyl-3-methyl-5-(2-oxo-6-phenyl-1,2-dihydroindol-3-ylidenemethyl)-1H-pyrrole-2-carboxylic acid (3-pyrrolidin-1-ylpropyl)amide] | 12.6 |  | 23.5 | 7.9
CC(=O)c1c(/C=C2\C(=O)Nc3ccc(Br)cc32)[nH]c(C(=O)NCCCN2CCOCC2)c1C [Example 31, 4-Acetyl-5-(5-bromo-2-oxo-1,2-dihydroindol-3-ylidenemethyl)-3-methyl-1H-pyrrole-2-carboxylic acid (3-morpholin-4-ylpropyl)amide] |  |  | 9.83 | 47.2
CCN(CC)CCNC(=O)c1c(C)[nH]c(/C=C2\C(=O)Nc3cc(-c4cccnc4)ccc32)c1C [Example 63, 2,4-Dimethyl-5-(2-oxo-6-pyridin-3-yl-1,2-dihydroindol-3-ylidenemethyl)-1H-pyrrole-3-carboxylic acid (2-diethylaminoethyl)amide] | 0.21 |  | 8.59 | 
Cc1[nH]c(/C=C2\C(=O)Nc3ccc(-c4ccccc4)cc32)c(C)c1C(=O)NCCCn1ccnc1 [Example 58, 2,4-Dimethyl-5-(2-oxo-5-phenyl-1,2-dihydroindol-3-ylidenemethyl)-1H-pyrrole-3-carboxylic acid (3-imidazol-1-ylpropyl)amide] |  | 21.1 |  | 
CCN(CC)CCNC(=O)c1c(C(C)C)[nH]c(/C=C2\C(=O)Nc3ccc(Br)cc32)c1C(C)C [Example 71, 5-(5-Bromo-2-oxo-1,2-dihydroindol-3-ylidenemethyl)-2,4-diisopropyl-1H-pyrrole-3-carboxylic acid (2-diethylaminoethyl)amide] | 15.2 | 22.5 |  | 9.91
CCN(CC)CCCNC(=O)c1[nH]c(/C=C2\C(=O)Nc3ccc(OC)cc32)cc1C [Example 15, 5-(5-Methoxy-2-oxo-1,2-dihydroindol-3-ylidenemethyl)-3-methyl-1H-pyrrole-2-carboxylic acid (3-diethylaminopropyl)amide] |  |  |  | 98.6
Cc1c(C(=O)NCCCN2CCCC2)[nH]c(/C=C2\C(=O)Nc3ccc(Br)cc32)c1C(=O)c1ccccc1 [Example 24, 4-Benzoyl-5-(5-bromo-2-oxo-1,2-dihydroindol-3-ylidenemethyl)-3-methyl-1H-pyrrole-2-carboxylic acid (3-pyrrolidin-1-ylpropyl)amide] |  |  | 16.8 | 5.31

Source: patent US6573293B2, “Pyrrole substituted 2-indolinone protein kinase inhibitors” (Sugen, Inc., priority 2000, dated 2003)
